Like-named read-outs stand apart in the source and are kept apart here.
Tests used:
Type in all cases: cell-based
GIST882 cell line = test: High throughput drug sensitivity and resistance test (CellTiter-Glo, 72 hours); settings: drug combined with BAY2666605 (40 nM) minus drug alone
Experimental: High throughput drug sensitivity and resistance test. […] In addition, same compounds were investigated together with anagrelide hydrochloride (100 nM) treatment in the PDE3A low expressing cell lines SA4 and GOT3, and with BAY2666605 (40 nM) in all PDE3A-positive cell lines GIST882, SA4 and GOT3. […] A cell viability was measured after 72 hours using CellTiter-Glo Cell Viability assay (Promega Inc.) and PHERAstar FS plate reader (BMG Labtech). The data were normalized to negative (0.01% dimethyl sulfoxide only) and positive (100 μmol/L benzethonium chloride) controls.
(§1) A four-parameter logistic dose-response curves were estimated by using the Marquardt-Levenberg algorithm and Breeze analysis platform. Drug responses to the test compounds were measured using the drug sensitivity score (DSS). Drug synergy partners, which were common in investigated cell lines were identified as following: DSS value of a single agent was subtracted from the DSS value of anagrelide-drug combination in single cell lines. […] The analysis was repeated by using BAY2666605 as a PDE3A modulator.

[1] = system: GIST882, GOT3 and SA4 cell lines; test: High throughput drug sensitivity and resistance test, average over cell lines (BAY2666605 combination); settings: for Average DSS (aDSS): BAY2666605 combination, average of GIST882, SA4 and GOT3, aDSS higher than 3.0 = synergy
Experimental: (§2) Cell lines. PDE3A-positive (GIST882, SA4, and GOT3) and PDE3A-negative cell lines (93TT449, 94T778, LPS141, MLS17656-92, MLS402-91, and SW872) were cultured in RPMI Medium 1640 (Gibco) with 5-, 10- or 20% fetal bovine serum (FBS, gibco), 100 U/mL of penicillin, 100 […] and 0.03 mg/mL of L-glutamine (Pen Strep Glut, Gibco, 10378-016) in a humidified, 5% CO2 atmosphere at 37° C.
(§3) High throughput drug sensitivity and resistance test. A sensitivity and resistance of cancer cell lines to 528 compounds were investigated in 9 cell lines (GIST882, SA4, GOT3, 93TT449, 94T778, LPS141, MLS17656-92, MLS402-91, and SW872). In addition, same compounds were investigated together with anagrelide hydrochloride (100 nM) treatment in the PDE3A low expressing cell lines SA4 and GOT3, and with BAY2666605 (40 nM) in all PDE3A-positive cell lines GIST882, SA4 and GOT3. The compounds were dissolved in 100% dimethyl sulfoxide or water and plated in 10-fold dilutions covering a 10,000-fold concentration range on flat clear bottom 384-well microplates as described in detail earlier (Pulkka O P, et al 2019). A cell viability was measured after 72 hours using CellTiter-Glo Cell Viability assay (Promega Inc.) and PHERAstar FS plate reader (BMG Labtech). The data were normalized to negative (0.01% dimethyl sulfoxide only) and positive (100 μmol/L benzethonium chloride) controls.
as §1

SA4 cell line = test: High throughput drug sensitivity and resistance test (CellTiter-Glo, 72 hours); settings: drug combined with BAY2666605 (40 nM) minus drug alone, SA4
Experimental: as §2, §3, §1

GOT3 cell line = test: as above; settings: drug combined with BAY2666605 (40 nM) minus drug alone, GOT3
Experimental: as §2, §3, §1

[2] = with anagrelide (GOT3, SA4) or BAY2666605 (GIST882, GOT3, SA4)

SMILES | GIST882 cell line: DSS(combo (BAY2666605))-DSS(drug) (GIST882 cell line) | Average DSS (aDSS) [1] | synergy in high-throughput screening (in words) [1, 2] | SA4 cell line: DSS(combo (BAY2666605))-DSS(drug) (SA4 cell line) | GOT3 cell line: DSS(combo (BAY2666605))-DSS(drug) (GOT3 cell line) | synergy in high-throughput screening (in words) [1]
Cn1c(=O)n(-c2ccc(C(C)(C)C#N)cc2)c2c3cc(-c4cnc5ccccc5c4)ccc3ncc21 [Dactolisib, dactolisib] | 3.1 | 5.3 | synergistic | 4.6 | 8.2 | 
NC(=O)/C(=C/n1cnc(-c2cc(C(F)(F)F)cc(C(F)(F)F)c2)n1)c1cncnc1 [Eltanexor, eltanexor] | 5.4 | 3.1 | synergistic | 3.1 | 0.8 | 
CO[C@@H](C)Cn1c(=O)n(C)c2cnc3ccc(-c4cncc(C(C)(C)O)c4)cc3c21 [LY3023414] | 2.4 | 4.4 | synergistic | 9.3 | 1.5 | 
COc1ccc(-c2ccc3ncc4c(c3c2)n(-c2ccc(N3CCNCC3)c(C(F)(F)F)c2)c(=O)n4C)cn1 [NVP-BGT226] | 6.2 | 4.8 | synergistic | 8.1 | 0.1 | 
COc1ncc(-c2ccc3nccc(-c4ccnnc4)c3c2)cc1NS(=O)(=O)c1ccc(F)cc1F [Omipalisib, omipalisib] | 7.4 | 4.5 | synergistic | 6.5 | −0.4 | 
CC(C)N(C[C@H]1O[C@@H](n2cnc3c(N)ncnc32)[C@H](O)[C@@H]1O)[C@H]1C[C@@H](CCc2nc3cc(C(C)(C)C)ccc3[nH]2)C1 [Pinometostat, pinometostat] | 3.9 | 4.6 | synergistic | 9.8 | 0 | 
O=C(CCCCCCNC(=O)c1cnc(N(c2ccccc2)c2ccccc2)nc1)NO [Rocilinostat, rocilinostat] | 1.4 | 3.3 |  | 7.5 | 0.9 | synergistic
O=C(/C=C\n1cnc(-c2cc(C(F)(F)F)cc(C(F)(F)F)c2)n1)NNc1cnccn1 [Selinexor] | 7.9 | 4.2 | synergistic | 5.4 | −0.7 | 
Cn1nnc2c(C(N)=O)ncn2c1=O [Temozolomide, temozolomide] | 5.4 | 4.2 |  | 5.2 | 1.9 | 
CN1CCc2c(c3ccccc3n2Cc2ccc(C(=O)NO)cc2)C1 [Tubastatin A, tubastatin A] | −0.3 | 4.4 | synergistic | 10.7 | 2.8 | 
